Where two headings read alike, the source gives them in different places. Peptide text beside a SMILES is read from it. * marks the point of attachment. Cbz = O=C(OCc1ccccc1)*
Legend:
cathepsin B [1] = biological target: T1, cathepsin B (Homo sapiens, UniProt P07858); assay: recombinant cathepsin B β-secretase assay (Z-VKM-MCA); format: biochemical; set-up: purchased; settings: recombinant human cathepsin B (3.5 ng), Z-V-K-M-MCA substrate (100 μM); read-out: IC50 inhibitory concentration
Description: Peptide structures that inhibit cathepsin B β-secretase activity were used to develop small molecule AD drugs. A library of dipeptide aldehydes were screened for an inhibitory effect on the cathepsin B β-secretase activity using recombinant human cathepsin B (3.5 ng) cleavage of the Z-V-K-M-MCA substrate (100 μM).
The recombinant cathepsin B β-secretase assay occurs in a solution (100 μl total volume) consisting of H2O (20 μl), Na-Acetate (50 mM, pH 5.0), NaCl (100 mM), Z-VKM-MCA (100 μM), GSH (10 mM), EDTA (1 mM), and recombinant human cathepsin B (3.5 ng) and 2DMSO (2%). A dipeptide aldehyde was added to such solutions in varying amounts to determine the IC50. The reagents were generally commercially available or, in the case of the dipeptide aldehydes, custom synthesized. The assay was incubated at 37° C. for 45 minutes and the fluorescence was read using a spectrophotometer (365/450 nm excitation/emission). Assays were run in duplicate. Compounds that inhibited cathepsin B by 80-100% (at 10 μM) underwent dose-response testing at […] to 10 μM to determine potency, measured as IC50 values (determined by non-linear regression a analysis using Graphpad Prism). Compounds with IC50 values in the nanomolar range, up to 100 nM, were selected for further study.

[2] = tested on: endogenous β-secretase activity in regulated secretory vesicles; assay: endogenous β-secretase activity in isolated regulated secretory vesicles, monitored with Z-Val-Lys-Met-MCA; format: biochemical, bovine
Description: A high throughput screening (HTS) assay was developed to measure protease activity that cleaves the wild-type β-secretase cleavage site. The substrate Z-Val-Lys-Met-MCA mimics the wild-type β-secretase cleavage site upon cleavage between Met-MCA, which generates fluorescent MCA. The free MCA fluorescence provides sensitive and quantitative measurement of protease activity. This assay provides a rapid (30 minutes) and sensitive assay of activity for cleaving the wild-type β-secretase cleavage site of APP, expressed in majority of the AD population Specifically, the Z-Val-Lys-Met-MCA cleaving assay can be used to detect endogenous β-secretase activity in regulated secretory vesicles.
Isolation of regulated secretory vesicles, also known as chromaffin vesicles, from adrenal medullary tissue (bovine) was conducted by sucrose density gradient purification, as described previously (54-56, 58). Briefly, fresh bovine adrenal medulla (from 40 glands) was gently homogenized by a polytron (Brinkmann) in 200-250 ml ice-cold 0.32 M sucrose. The homogenate was centrifuged at 1500 rpm in a GSA rotor (Sorval centrifuge) for 20 minutes at 4° C. The supernatant was collected and centrifuged at 8000 rpm in a GSA rotor for 20 minutes at 4° C. to obtain a pellet of chromaffin vesicles. The pellet was washed 3 times in 0.32 M sucrose. […]

[3] = tested on: Aβ40 production from endogenous APP in regulated secretory vesicles isolated from chromaffin cells; assay: Aβ production from endogenous APP in isolated regulated secretory vesicles; format: biochemical, bovine; settings: inhibitor 10 μM
Description: Regulated secretory vesicles isolated from chromaffin cells naturally produce Aβ from endogenous APP when incubated at 37° C. in vitro for several hours. These vesicles can be used as an in vitro screen for compounds that inhibit Aβ production. […] The effects of cathepsin B inhibitors, CA074 (10 μM, ♦) and CA074Me (10 μM, □), on the production of Aβ40 from endogenous APP in regulated secretory vesicles isolated from chromaffin cells was evaluated in time course studies. […] Each inhibitor was tested in triplicate; values represent x±sem (*statistically significant with p<0.05).
Cathepsin B compounds that were effective inhibitors of endogenous II-secretase activity were tested for inhibition of Aβ peptide production in regulated secretory vesicles. The effect of reversible cathepsin B compounds on production of Aβ40 and Aβ42 in isolated chromaffin vesicles was tested by incubating candidate inhibitors (at 10 μM) with lysed chromaffin vesicles under identical conditions as for the β-secretase assay for 8 hours. […] After incubation, Aβ40 and Aβ42 was measured by ELISA assays, as described for measurement of Aβ peptides in brain extracts. Each candidate inhibitor was assayed in triplicate.

[4] = biological target: cathepsin B purified from secretory vesicles (Bos taurus, UniProt P07688); assay: Z-Val-Lys-Met-MCA cleaving activity of purified cathepsin B; settings: inhibitor 10 μM
brain Aβ = settings: wild-type mice, icv 200 mg/kg/day; cited from earlier work
aspartyl protease, BACE1 = aspartyl protease, BACE1 (Homo sapiens, UniProt P56817); assay: effect on BACE1; format: biochemical
[5] = tested on: brain and synaptosomal Aβ; assay: guinea pig brain and synaptosome Aβ by ELISA after icv infusion; format: in vivo; settings: icv 0.15 mg/kg/day, 30 days
Description: Guinea pig (gp) is a natural, non-transgenic model of human APP processing gpAPP is 98% homologous to human APP, contains the human wild-type β-secretase site, and gpAβ is identical to human Aβ. Brain synaptosome preparations are enriched with neuronal synapses which are the sites at which regulated secretion occurs and are an in vivo measure of regulated secretory secretion CTFβ is an APP fragment that results from p-secretase cleavage of APP and reflects in vivo β-secretase activity. […] E64d was icy administered into gp brains (0.15 mg/kg/day) for 7 or 30 days. […] In FIG. 5b, total synaptosomal Aβ is shown.
CA074Me (0.15 mg/kg/day) was icy infused into gp brains with mini pumps. […] An equal reduction of Aβ40 and Aβ42 is consistent with the inhibitor affecting p-secretase activity
At the end of the treatment, the brains were isolated and extracted with guanidine hydrochloride and Aβ40 and Aβ42 levels were determined using ELISA.
Cathepsin B inhibitors were administered directly into the brain by icy infusion with minipumps in time course studies at different doses. Guinea pigs were infused with compounds using Alzet pumps (2.5 μl/hr, with compounds at 1 mg/ml in saline) for 7 and 30 days, and other times. This initial dose of compound was selected because E64d and CA074Me are effective at this dose. Each treatment group consisted of eight to ten guinea pigs, including the vehicle control group.
At the end of each experiment, animals were sacrificed and half the brain was taken for ELISA measurement of Aβ40 and Aβ42 levels. The other half was isolated for synaptosome preparations for ELISA measurement of Aβ40 and Aβ42 content in nerve terminals. Synaptosomes were prepared by homogenization in isotonic sucrose (320 mM), pH 7.4, 1 mM EDTA, 0.25 mM dithiothreitol, and 30 U/MI RNAse inhibitor. The homogenate was centrifuged at 1000×g for 10 minutes. The supernatant was loaded on a Sucrose-Percoll discontinuous gradient and centrifuged at 32,000×g for 5 minutes (80) Enriched synaptosomes were washed in PBS, and centrifuged at 12,000×g for 4 minutes. The supernatant was removed, and the synaptosome containing pellet was resuspended in 50% OptiPrep (Accurate Chemica. Westbury, N.Y.), loaded on an OptiPrep discontinuous flotation gradient (9, 12.5, 25, and 35%) and centrifuged at 10,000×g for 20 minutes. The synaptosomes were obtained at the […]
For quantitative analysis of Aβ peptides, an enzyme-linked immunosorbent assay (ELISA) was used to measure the levels of total Aβ, Aβtotal, Aβ40 and Aβ42 in the brains and synaptosomes of guinea pigs (Biosource International, Camarillo, Calif.) Aβtotal, Aβ40, Aβ42 was extracted from guinea pig brains or from synaptosomes by guanidine hydrochloride and quantified as described by the manufacturer. This assay extracted the total Aβ peptide from the brain (both soluble and aggregated). Tissue samples were homogenized in 5M guanidine buffer (5M guanidine HCl in 50 mM Tris-Cl, pH 8.3; Sigma-Aldrich, St. Louis, Mo.) at 1:10 w/v dilution. Homogenates were agitated at room temperature for 3-4 hours, then stored at −20° C. The day before running the ELISA, the tissue samples were diluted further 1:10 to provide a final guanidine concentration of 0.5M. These diluted homogenates were spun down at 14,000 rpm for 20 minutes at 4° C. and supernatants used for Aβ determination by ELISA (84-86). Brain and synaptosome extracts were assayed as diluted in 0.5M guanidine. In addition, Aβ40 and Aβ42 were assayed using ELISA using 6E10 as the capture antibody and Rb209 and Rb321 as reporter antibodies, respectively, for Aβ40 and Aβ42 (96).

cathepsin B [6] = biological target: T1, cathepsin B; settings: reference (4); read-out: IC50 for cathepsin B inhibition; cited from earlier work

aspartyl protease, BACE1, sequence (P56817 46-501): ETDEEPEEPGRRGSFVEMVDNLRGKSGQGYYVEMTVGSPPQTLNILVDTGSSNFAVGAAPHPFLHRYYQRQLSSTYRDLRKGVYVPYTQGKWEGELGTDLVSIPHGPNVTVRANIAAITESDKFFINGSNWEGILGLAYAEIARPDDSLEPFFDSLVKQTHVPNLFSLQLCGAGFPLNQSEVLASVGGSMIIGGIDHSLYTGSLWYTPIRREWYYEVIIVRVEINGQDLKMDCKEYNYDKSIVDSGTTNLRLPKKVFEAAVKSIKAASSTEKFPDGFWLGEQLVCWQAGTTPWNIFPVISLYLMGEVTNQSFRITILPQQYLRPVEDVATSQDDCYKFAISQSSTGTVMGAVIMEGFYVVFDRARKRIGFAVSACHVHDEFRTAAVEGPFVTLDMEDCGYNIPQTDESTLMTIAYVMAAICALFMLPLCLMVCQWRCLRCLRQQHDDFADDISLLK

## O=CC(CO)NC(=O)C(Cc1ccc(O)cc1)NC(=O)OCc1ccccc1 (stereo not drawn) [Z-YS-ald] (Cbz-Tyr-Ser-aldehyde; configuration not given here)
Cathepsin B [1]
  IC50: 37 nM

## CC(C)CCNC(=O)[C@H](CC(C)C)NC(=O)[C@H]1O[C@@H]1C(=O)O [E64c]
[2]; inhibitor 10 μM
  inhibition of endogenous β-secretase activity in regulated secretory vesicles: completed inhibited
[3]
  effect on Aβ production in isolated regulated secretory vesicles: inhibited
[4]
  inhibition of Z-Val-Lys-Met-MCA cleaving activity of cathepsin B: completely inhibited

## CC(C)C[C@H](NC(=O)[C@@H](NC(=O)[C@@H](N)CNC(=O)c1nn[nH]n1)C(C)C)C(=O)N[C@@H](Cc1ccccc1)[C@@H](O)C(=O)Nc1cc(C(=O)O)cc(C(=O)O)c1 [KMI-429]
Brain Aβ
  maximum reduction in brain Aβ: 30-40%

## CC(=O)N[C@@H](CC(C)C)C(=O)N[C@H](C(=O)N[C@H](C=O)CCCCN)C(C)C [Ac-LVK-CHO, acetyl-L-leucyl-L-valyl-L-lysinal] (Ac-Leu-Val-Lys-aldehyde)
Aspartyl protease, BACE1
  effect on BACE1: do not affect
[5]
  reduction of Aβ40 in brain extracts: about 70%
  reduction of Aβ42 in brain extracts: ~60%
Cathepsin B [6]
  IC50: 4 nM

## CC(=O)NCCCCC(C=O)NC(=O)C(NC(=O)OCc1ccccc1)C(C)C (stereo not shown) [Z-VK(Ac)-ald]
Cathepsin B [1]
  IC50: 31 nM

## O=CC(CO)NC(=O)C(CSC(=O)OCc1ccccc1)NC(=O)OCc1ccccc1 (stereo not shown) [Z-C(Z)S-ald] (Cbz-Cys(Cbz)-Ser-aldehyde; configuration not given here)
Cathepsin B [1]
  IC50: 67 nM

## CCCNC(=O)[C@H]1O[C@@H]1C(=O)N[C@H](C(=O)N1CCC[C@H]1C(=O)O)[C@@H](C)CC [CA074]
[2]; inhibitor 1 μM
  inhibition of endogenous β-secretase activity in regulated secretory vesicles: completed inhibited
[3]
  effect on Aβ production in isolated regulated secretory vesicles: block Aβ production

## O=CC(CO)NC(=O)C(CCC(=O)NC(c1ccccc1)(c1ccccc1)c1ccccc1)NC(=O)OCc1ccccc1 (stereo not shown) [Z-Q(Trt)S-ald]
Cathepsin B [1]
  IC50: 58 nM

## CC(C)C(C=O)NC(=O)C(Cc1ccc(O)cc1)NC(=O)OCc1ccccc1 (stereo not drawn) [Z-YV-ald] (Cbz-Tyr-Val-aldehyde; configuration not given here)
Cathepsin B [1]
  IC50: 65 nM

## CC(=O)NCCCCC(C=O)NC(=O)C(CSC(=O)OCc1ccccc1)NC(=O)OCc1ccccc1 (stereo not shown) [Z-C(Z)K(Ac)-ald] (Cbz-Cys(Cbz)-Lys(Ac)-aldehyde; configuration not given here)
Cathepsin B [1]
  IC50: 91 nM

Source: patent publication US20100216875A1, “METHODS OF TREATING ALZHEIMER'S DISEASE” (priority 2006, published 2010)
